What all share (test): relative viability (nuclei count vs DMSO), 5 days (fraction); higher = more cells survive
Compound in the experiment “IMD-0354 + Decitabine”: O=C(Nc1cc(C(F)(F)F)cc(C(F)(F)F)c1)c1cc(Cl)ccc1O [IMD-0354] + Nc1ncn([C@H]2C[C@H](O)[C@@H](CO)O2)c(=O)n1 [Decitabine] (partner 2 µM)
In outline: (§1)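 Relative viability was taken as the ratio of nuclei in treated wells to nuclei in vehicle wells. Lung cancer cell lines in 1536-well plates received compounds by pin tool one day after seeding, either one drug alone or a fixed anchor-drug dose plus five library-drug doses (not always all listed) in √10 steps. Nuclei were counted on 4× images after 5 days of treatment, and values are medians of duplicate plates.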

Compound in the experiment “CX-5461 + Decitabine”: Cc1cnc(CNC(=O)c2c(=O)c3ccc(N4CCCN(C)CC4)nc3n3c2sc2ccccc23)cn1 [CX-5461] + Nc1ncn([C@H]2C[C@H](O)[C@@H](CO)O2)c(=O)n1 [Decitabine] (partner 2 µM)
In outline: as §1

Compound in the experiment “CX-5461 + Foretinib”: Cc1cnc(CNC(=O)c2c(=O)c3ccc(N4CCCN(C)CC4)nc3n3c2sc2ccccc23)cn1 [CX-5461] + COc1cc2c(Oc3ccc(NC(=O)C4(C(=O)Nc5ccc(F)cc5)CC4)cc3F)ccnc2cc1OCCCN1CCOCC1 [Foretinib] (partner 0.25 µM)
Summed up: as §1

Compound in the experiment “IMD-0354 + Navitoclax”: O=C(Nc1cc(C(F)(F)F)cc(C(F)(F)F)c1)c1cc(Cl)ccc1O [IMD-0354] + CC1(C)CCC(c2ccc(Cl)cc2)=C(CN2CCN(c3ccc(C(=O)NS(=O)(=O)c4ccc(N[C@H](CCN5CCOCC5)CSc5ccccc5)c(S(=O)(=O)C(F)(F)F)c4)cc3)CC2)C1 [Navitoclax] (partner 0.5 µM)
Summed up:
as §1

For NCI-H1915, the relative viability with IMD-0354 + Decitabine (first compound 0.04 µM) came out at 0.299; in the experiment with IMD-0354 + Decitabine (first compound 0.1265 µM) it was 0.267; with IMD-0354 + Decitabine (first compound 0.4 µM), 0.224; with IMD-0354 + Decitabine (first compound 1.265 µM), 0.25; in the experiment with IMD-0354 + Decitabine (first compound 4 µM), 0.169; with CX-5461 + Decitabine (first compound 0.01 µM), 0.266. The relative viability with CX-5461 + Decitabine (first compound 0.03162 µM) came to 0.259; with CX-5461 + Decitabine (first compound 0.1 µM), 0.284; with CX-5461 + Decitabine (first compound 0.3162 µM), 0.244; with CX-5461 + Decitabine (first compound 1 µM) it was 0.283; with CX-5461 + Foretinib (first compound 0.01 µM), 1.14; with CX-5461 + Foretinib (first compound 0.03162 µM), 1.07. For the same cell line, the relative viability with CX-5461 + Foretinib (first compound 0.1 µM) came to 1.09; in the experiment with CX-5461 + Foretinib (first compound 0.3162 µM) it was 1.08; with CX-5461 + Foretinib (first compound 1 µM), 1.05; in the experiment with IMD-0354 + Navitoclax (first compound 0.04 µM), 0.708; with IMD-0354 + Navitoclax (first compound 0.1265 µM) it was 0.857; in the experiment with IMD-0354 + Navitoclax (first compound 0.4 µM) it was 0.412. The relative viability in the experiment with IMD-0354 + Navitoclax (first compound 1.265 µM) came out at 0.661; in the experiment with IMD-0354 + Navitoclax (first compound 4 µM), 0.219.
With NCI-H1944, the relative viability with IMD-0354 + Decitabine (first compound 0.04 µM) is 0.44; with IMD-0354 + Decitabine (first compound 0.1265 µM), 0.451; with IMD-0354 + Decitabine (first compound 0.4 µM), 0.398; with IMD-0354 + Decitabine (first compound 1.265 µM) it was 0.473; with IMD-0354 + Decitabine (first compound 4 µM) it was 0.147; with CX-5461 + Decitabine (first compound 0.01 µM), 0.478. Further, the relative viability with CX-5461 + Decitabine (first compound 0.03162 µM) worked out at 0.443; in the experiment with CX-5461 + Decitabine (first compound 0.1 µM), 0.429; with CX-5461 + Decitabine (first compound 0.3162 µM), 0.371; in the experiment with CX-5461 + Decitabine (first compound 1 µM), 0.44; in the experiment with CX-5461 + Foretinib (first compound 0.01 µM), 0.849; with CX-5461 + Foretinib (first compound 0.03162 µM), 0.913. In addition, the relative viability amounted to 0.897 with CX-5461 + Foretinib (first compound 0.1 µM); 0.47 with CX-5461 + Foretinib (first compound 0.3162 µM); 0.822 with CX-5461 + Foretinib (first compound 1 µM); 0.962 with IMD-0354 + Navitoclax (first compound 0.04 µM); 1.13 in the experiment with IMD-0354 + Navitoclax (first compound 0.1265 µM); 1.01 in the experiment with IMD-0354 + Navitoclax (first compound 1.265 µM). For the same cell line, in the experiment with IMD-0354 + Navitoclax (first compound 4 µM), the relative viability is 0.125.
As to NCI-H1975, the relative viability with IMD-0354 + Decitabine (first compound 0.04 µM) turned out to be 0.389; with IMD-0354 + Decitabine (first compound 0.1265 µM) it was 0.409; with IMD-0354 + Decitabine (first compound 0.4 µM), 0.36; with IMD-0354 + Decitabine (first compound 1.265 µM), 0.2; in the experiment with IMD-0354 + Decitabine (first compound 4 µM), 0.21; with CX-5461 + Decitabine (first compound 0.01 µM) it was 0.404. Moreover, the relative viability with CX-5461 + Decitabine (first compound 0.03162 µM) amounted to 0.36; with CX-5461 + Decitabine (first compound 0.1 µM), 0.424; with CX-5461 + Decitabine (first compound 0.3162 µM), 0.447; with CX-5461 + Decitabine (first compound 1 µM), 0.276; with CX-5461 + Foretinib (first compound 0.01 µM), 0.971; with CX-5461 + Foretinib (first compound 0.03162 µM) it was 0.896. In addition, the relative viability came to 1.03 with CX-5461 + Foretinib (first compound 0.1 µM); 0.981 in the experiment with CX-5461 + Foretinib (first compound 0.3162 µM); 0.521 in the experiment with CX-5461 + Foretinib (first compound 1 µM); 1.28 with IMD-0354 + Navitoclax (first compound 0.04 µM); 1.19 in the experiment with IMD-0354 + Navitoclax (first compound 0.1265 µM); 0.528 with IMD-0354 + Navitoclax (first compound 0.4 µM). The relative viability with IMD-0354 + Navitoclax (first compound 1.265 µM) was determined as 0.44; with IMD-0354 + Navitoclax (first compound 4 µM), 0.184.
As to NCI-H1993, the relative viability came out at 0.682 in the experiment with IMD-0354 + Decitabine (first compound 0.04 µM); 0.658 with IMD-0354 + Decitabine (first compound 0.1265 µM); 0.516 in the experiment with IMD-0354 + Decitabine (first compound 0.4 µM); 0.458 in the experiment with IMD-0354 + Decitabine (first compound 1.265 µM); 0.367 with IMD-0354 + Decitabine (first compound 4 µM); 1.37 with CX-5461 + Decitabine (first compound 0.01 µM). The relative viability stood at 0.64 in the experiment with CX-5461 + Decitabine (first compound 0.03162 µM); 0.668 in the experiment with CX-5461 + Decitabine (first compound 0.1 µM); 0.29 in the experiment with CX-5461 + Decitabine (first compound 0.3162 µM); 0.577 in the experiment with CX-5461 + Decitabine (first compound 1 µM); 0.738 with CX-5461 + Foretinib (first compound 0.01 µM); 0.779 in the experiment with CX-5461 + Foretinib (first compound 0.03162 µM). Besides, the relative viability with CX-5461 + Foretinib (first compound 0.1 µM) worked out at 0.813; with CX-5461 + Foretinib (first compound 0.3162 µM), 0.746; with CX-5461 + Foretinib (first compound 1 µM) it was 0.788; in the experiment with IMD-0354 + Navitoclax (first compound 0.04 µM), 0.975; in the experiment with IMD-0354 + Navitoclax (first compound 0.1265 µM) it was 0.792; with IMD-0354 + Navitoclax (first compound 0.4 µM) it was 0.722. Also, the relative viability turned out to be 0.552 with IMD-0354 + Navitoclax (first compound 1.265 µM) and 0.576 with IMD-0354 + Navitoclax (first compound 4 µM).
Consider NCI-H2009, for which the relative viability came out at 0.374 with IMD-0354 + Decitabine (first compound 0.04 µM); 0.408 with IMD-0354 + Decitabine (first compound 0.1265 µM); 0.288 in the experiment with IMD-0354 + Decitabine (first compound 0.4 µM); 0.18 with IMD-0354 + Decitabine (first compound 1.265 µM); 0.134 with IMD-0354 + Decitabine (first compound 4 µM); 0.41 with CX-5461 + Decitabine (first compound 0.01 µM). In addition, the relative viability with CX-5461 + Decitabine (first compound 0.03162 µM) is 0.374; with CX-5461 + Decitabine (first compound 0.1 µM) it was 0.335; with CX-5461 + Decitabine (first compound 0.3162 µM), 0.37; in the experiment with CX-5461 + Decitabine (first compound 1 µM), 0.308; with CX-5461 + Foretinib (first compound 0.01 µM) it was 1.24; with CX-5461 + Foretinib (first compound 0.03162 µM), 1.17. Also, the relative viability in the experiment with CX-5461 + Foretinib (first compound 0.1 µM) turned out to be 1.07; with CX-5461 + Foretinib (first compound 0.3162 µM) it was 1.18; in the experiment with CX-5461 + Foretinib (first compound 1 µM), 1.04; with IMD-0354 + Navitoclax (first compound 0.04 µM), 1.22; with IMD-0354 + Navitoclax (first compound 0.1265 µM), 1.02; with IMD-0354 + Navitoclax (first compound 0.4 µM) it was 0.915. The relative viability was determined as 0.642 in the experiment with IMD-0354 + Navitoclax (first compound 1.265 µM) and 0.115 with IMD-0354 + Navitoclax (first compound 4 µM).
For the cell line NCI-H2023, the relative viability with IMD-0354 + Decitabine (first compound 0.04 µM) is 0.262; with IMD-0354 + Decitabine (first compound 0.1265 µM) it was 0.222; with IMD-0354 + Decitabine (first compound 0.4 µM), 0.167; with IMD-0354 + Decitabine (first compound 1.265 µM), 0.0889; with IMD-0354 + Decitabine (first compound 4 µM), 0.0963; with CX-5461 + Decitabine (first compound 0.01 µM), 0.223. Also, the relative viability with CX-5461 + Decitabine (first compound 0.03162 µM) came out at 0.178; with CX-5461 + Decitabine (first compound 0.3162 µM) it was 0.178; with CX-5461 + Decitabine (first compound 1 µM), 0.0728; in the experiment with CX-5461 + Foretinib (first compound 0.01 µM) it was 0.954; in the experiment with CX-5461 + Foretinib (first compound 0.03162 µM) it was 0.71; with CX-5461 + Foretinib (first compound 0.1 µM), 0.733. Besides, the relative viability is 0.552 with CX-5461 + Foretinib (first compound 0.3162 µM); 0.108 with CX-5461 + Foretinib (first compound 1 µM); 1.16 with IMD-0354 + Navitoclax (first compound 0.04 µM); 1.05 with IMD-0354 + Navitoclax (first compound 0.1265 µM); 0.561 with IMD-0354 + Navitoclax (first compound 0.4 µM); 0.257 with IMD-0354 + Navitoclax (first compound 1.265 µM). Also, the relative viability with IMD-0354 + Navitoclax (first compound 4 µM) was 0.121.
Regarding NCI-H2085, the relative viability came to 0.59 in the experiment with IMD-0354 + Decitabine (first compound 0.04 µM); 0.516 with IMD-0354 + Decitabine (first compound 0.1265 µM); 0.551 in the experiment with IMD-0354 + Decitabine (first compound 0.4 µM); 0.421 in the experiment with IMD-0354 + Decitabine (first compound 1.265 µM); 0.337 in the experiment with IMD-0354 + Decitabine (first compound 4 µM); 0.58 in the experiment with CX-5461 + Decitabine (first compound 0.01 µM). In addition, the relative viability with CX-5461 + Decitabine (first compound 0.03162 µM) is 0.524; in the experiment with CX-5461 + Decitabine (first compound 0.1 µM), 0.569; with CX-5461 + Decitabine (first compound 0.3162 µM), 0.563; with CX-5461 + Decitabine (first compound 1 µM), 0.517; in the experiment with CX-5461 + Foretinib (first compound 0.01 µM) it was 0.961; with CX-5461 + Foretinib (first compound 0.03162 µM), 1.07. Besides, the relative viability with CX-5461 + Foretinib (first compound 0.1 µM) worked out at 0.92; with CX-5461 + Foretinib (first compound 0.3162 µM), 0.864; in the experiment with CX-5461 + Foretinib (first compound 1 µM), 0.826; with IMD-0354 + Navitoclax (first compound 0.04 µM), 1.17; with IMD-0354 + Navitoclax (first compound 0.1265 µM) it was 1.16; with IMD-0354 + Navitoclax (first compound 0.4 µM), 0.859. Besides, the results for the relative viability with IMD-0354 + Navitoclax (first compound 1.265 µM) and in the experiment with IMD-0354 + Navitoclax (first compound 4 µM) were 0.62 and 0.251, respectively.
